Laboratory results reported in PMC10950880, “The RsfSR two-component system regulates SigF function by monitoring the state of the respiratory electron transport chain in Mycobacterium smegmatis” (The Journal of Biological Chemistry, 2024).

How the values were obtained:
RsfR (MSMEG_6131) = biological target: T1, RsfR (MSMEG_6131) (Mycolicibacterium smegmatis, UniProt A0R5B4); assay: phosphorylation of RsfR by acetyl phosphate (Phos-tag SDS-PAGE); RsfR then tested on P-RsfB; assay type: biochemical; conditions: 40 mM acetyl phosphate, 300 mM Tris-HCl pH 8.0, 50 mM KCl, 10 mM MgCl2, no ATP, 30 C; phosphodonor, covalent
T1 construct: C-terminal His6 kept; from E. coli BL21 (DE3), pT7-7rsfR
T1 sequence (A0R5B4 1-402): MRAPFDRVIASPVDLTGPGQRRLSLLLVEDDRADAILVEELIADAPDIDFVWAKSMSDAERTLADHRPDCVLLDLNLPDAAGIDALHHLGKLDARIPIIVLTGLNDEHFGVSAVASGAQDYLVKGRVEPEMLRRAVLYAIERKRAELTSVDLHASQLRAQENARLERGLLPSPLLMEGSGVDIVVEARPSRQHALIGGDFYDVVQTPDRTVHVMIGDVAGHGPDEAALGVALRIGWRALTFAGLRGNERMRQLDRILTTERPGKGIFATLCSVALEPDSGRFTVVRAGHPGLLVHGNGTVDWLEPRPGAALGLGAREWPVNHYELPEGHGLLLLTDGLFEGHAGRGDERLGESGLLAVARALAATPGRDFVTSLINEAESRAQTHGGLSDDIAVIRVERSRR

[1] = biological target: T2, RsfSTr (truncated RsfS, MSMEG_6130) (Mycolicibacterium smegmatis, UniProt A0R5B3); assay: autophosphorylation and phosphotransfer to RsfR, Phos-tag SDS-PAGE; assay type: biochemical; conditions: 1 mM ATP, 300 mM Tris-HCl pH 8, 50 mM KCl, 10 mM MgCl2, 30 C; covalent
T2 construct: kinase domain only (amino acids 190-525), lacks CHASE3 and N-terminal region; C-terminal His6 kept; from E. coli BL21; partially purified
T2 sequence (A0R5B3 entry or part of it): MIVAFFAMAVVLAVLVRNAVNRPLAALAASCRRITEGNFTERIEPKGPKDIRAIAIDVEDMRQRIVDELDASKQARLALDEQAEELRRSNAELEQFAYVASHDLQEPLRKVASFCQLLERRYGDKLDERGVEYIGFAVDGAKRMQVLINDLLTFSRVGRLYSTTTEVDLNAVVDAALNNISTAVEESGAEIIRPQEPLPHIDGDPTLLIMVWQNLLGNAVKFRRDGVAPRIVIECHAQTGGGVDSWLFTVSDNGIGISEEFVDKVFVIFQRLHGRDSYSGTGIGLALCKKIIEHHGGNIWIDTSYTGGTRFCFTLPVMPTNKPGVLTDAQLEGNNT

Compound | RsfR phosphorylation by acetyl phosphate (RsfR (MSMEG_6131)) | autophosphorylation and phosphotransfer to RsfR, Phos-tag SDS-PAGE [1]
CC(=O)OP(=O)(O)O [acetyl phosphate] | Acetyl phosphate phosphorylated purified RsfR less efficiently than RsfSTr | –
Nc1ncnc2c1ncn2[C@@H]1O[C@H](COP(=O)(O)OP(=O)(O)OP(=O)(O)O)[C@@H](O)[C@H]1O [ATP] | – | RsfSTr was autophosphorylated in the reaction mixture
